According to ChEMBL document CHEMBL2169792, “Synthesis of new 4-thiazolidinone-, pyrazoline-, and isatin-based conjugates with promising antitumor activity” (J Med Chem, 2012):
Activity calls are given as the source filed them. No cut-off for these calls is given here.

Key:
[1] = Cytotoxicity against human breast cancer cells after 48 hrs by SRB assay; format: functional; conditions: Cancer cell lines
[2] = Cytotoxicity against human leukemia cells after 48 hrs by SRB assay; format: functional; conditions: Leukemia cell; for CC50: read-out: LC50 (the source's name)
[3] = Cytotoxicity against human CNS cancer cells after 48 hrs by SRB assay; format: functional; conditions: Cancer cell lines
[4] = Cytotoxicity against human non-small cell lung cancer cells after 48 hrs by SRB assay; format: functional; conditions: Cancer cell lines; for CC50: read-out: LC50 (the source's name)
[5] = Cytotoxicity against human colon cancer cells after 48 hrs by SRB assay; format: functional; conditions: Cancer cell lines
[6] = Cytotoxicity against human melanoma cells after 48 hrs by SRB assay; format: functional; conditions: Melanoma cell; for CC50: read-out: LC50 (the source's name)
[7] = Cytotoxicity against human prostate cancer cells after 48 hrs by SRB assay; format: functional; conditions: Cancer cell lines
HCT-116 = assay: Cytotoxicity against human HCT116 cells assessed as cell growth at 10 uM after 48 hrs by SRB assay; format: functional; conditions: HCT-116, 48 h, read-out: Activity
[8] = Cytotoxicity against human renal cancer cells after 48 hrs by SRB assay; format: functional; conditions: Cancer cell lines
[9] = Cytotoxicity against human ovarian cancer cells after 48 hrs by SRB assay; format: functional; conditions: Cancer cell lines
TK-10 = assay: Cytotoxicity against human TK10 cells assessed as cell growth at 10 uM after 48 hrs by SRB assay; format: functional; conditions: TK-10, 48 h, read-out: Activity
Mus musculus = assay: Antitumor activity in ip dosed athymic nude mouse hollow fiber model assessed as reduction of viable cell mass; format: functional, organism-based
SF-539 = assay: Cytotoxicity against human SF539 cells assessed as cell growth at 10 uM after 48 hrs by SRB assay; format: functional; conditions: SF-539, 48 h, read-out: Activity
[10] = Toxicity in mouse; format: organism-based; conditions: in vivo
SNB-75 = assay: Cytotoxicity against human SNB75 cells assessed as cell growth at 10 uM after 48 hrs by SRB assay; format: functional; conditions: SNB-75, 48 h, read-out: Activity

Row | SMILES | GI50 [1] [µM] | LC50 (concentration causing 50% net cell kill) [1] [µM] | TGI [1] [µM] | GI50 [2] [µM] | TGI [2] [µM] | CC50 [2] [µM] | GI50 [3] [µM] | LC50 (concentration giving 50% net cell kill) [3] [µM] | TGI [3] [µM] | GI50 [4] [µM] | TGI [4] [µM] | CC50 [4] [µM] | GI50 [5] [µM] | LC50 (concentration lethal to 50% of cells) [5] [µM] | TGI [5] [µM] | GI50 [6] [µM] | TGI [6] [µM] | CC50 [6] [µM] | GI50 [7] [µM] | LC50 [7] [µM] | further results
1 | O=C1N=C(N2N=C(c3ccccc3)CC2c2ccccc2O)S/C1=C1/C(=O)Nc2ccccc21 (stereo not given) | 2.09 | 64.6 | 4.77 | 3.19 | 48.8 | 100 | 2.13 | 68.1 | 5.37 | 2.03 | 4.73 | 57.2 | 1.99 | 33.4 | 4.22 | 2.04 | 4.4 | 60.8 | 2.05 | 54.7 | TGI [7]: 4.35 µM; growth at 10 µM (HCT-116): -37.4%; GI50 [8]: 2.07 µM; LC50 [8]: 55.8 µM; TGI [8]: 17.8 µM; GI50 [9]: 2.41 µM; LC50 (concentration causing 50% net cell kill) [9]: 81.5 µM; TGI [9]: 36.6 µM
2 | COc1ccc(C2CC(c3ccccc3)=NN2C2=NC(=O)/C(=C3\C(=O)N(CC(=O)O)c4ccccc43)S2)cc1 (stereo not given) | – | – | – | – | – | – | – | – | – | – | – | – | – | – | – | – | – | – | – | – | growth at 10 µM (TK-10): 97.3%
3 | COc1ccc(C2CC(c3ccccc3)=NN2C2=NC(=O)/C(=C3\C(=O)Nc4ccc(Br)cc43)S2)cc1 (stereo not given) | 0.2 | 26.5 | 0.48 | 0.25 | 4.23 | 51 | 0.18 | 6.48 | 0.39 | 0.2 | 0.51 | 3.27 | 0.19 | 1.07 | 0.39 | 0.21 | 0.55 | 5.01 | 0.24 | 39.5 | Activity (Mus musculus): inactive; growth at 10 µM (SF-539): -55.1%; TGI [7]: 0.66 µM; MTD [10]: > 400 mg/kg; GI50 [8]: 0.18 µM; LC50 [8]: 1.27 µM; TGI [8]: 0.36 µM; GI50 [9]: 0.23 µM; LC50 (concentration causing 50% net cell kill) [9]: 23.4 µM; TGI [9]: 3.63 µM
4 | O=C(O)CN1C(=O)C(n2nc(-c3ccccc3)cc2-c2ccccc2O)c2ccccc21 (stereo not given) | – | – | – | – | – | – | – | – | – | – | – | – | – | – | – | – | – | – | – | – | growth at 10 µM (SNB-75): 108%
